Assay results as given in ChEMBL document CHEMBL1201862, “PubChem BioAssay data set” (2004).
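Following 48 hours of exposure in 96-well plates, responses at five concentrations were used to interpolate endpoints linearly. GI50 = concentration required for 50% inhibition of growth.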 Activity calls are given as the source filed them. No stated cut-off is given here; in the data, active = GI50 up to about 1.1 µM and inactive = higher.

Key:
Experiment in all cases: inhibition of tumour cell growth, NCI panel, 48 h
SN12C = system: SN12C
T47D = system: T47D
SR = system: SR
HOP-62 = system: HOP-62
DU-145 = system: DU-145
NCI/ADR-RES = system: NCI/ADR-RES
NCI-H460 = system: NCI-H460
A549 = system: A549
HT-29 = system: HT-29
PC-3 = system: PC-3
UACC-62 = system: UACC-62
HCT-15 = system: HCT-15
SF-295 = system: SF-295
SW-620 = system: SW-620
SK-MEL-2 = system: SK-MEL-2
NCI-H522 = system: NCI-H522
SF-539 = system: SF-539
786-0 = system: 786-0
M14 = system: M14
EKVX = system: EKVX

Row | SMILES | GI50 (SN12C) | GI50 (T47D) | GI50 (SR) | GI50 (HOP-62) | GI50 (DU-145) | GI50 (NCI/ADR-RES) | GI50 (NCI-H460) | GI50 (A549) | GI50 (HT-29) | GI50 (PC-3) | GI50 (UACC-62) | GI50 (HCT-15) [µM] | GI50 (SF-295) | GI50 (SW-620) | GI50 (SK-MEL-2) | GI50 (NCI-H522) | GI50 (SF-539) | GI50 (786-0) | GI50 (M14) | GI50 (EKVX)
1 | O=c1cc(-c2ccc(O)cc2)n(C2CC2)c2ccccc12 | 6.01 µM (inactive) | 3.96 µM (inactive) | 7.43 µM (inactive) | 4.41 µM (inactive) | 3.64 µM (inactive) | 11.9 µM (inactive) | 3.76 µM (inactive) | 4.52 µM (inactive) | 1.57 µM (inactive) | 9.44 µM (inactive) | 3.91 µM (inactive) | 4.08 | 3.46 µM (inactive) | 5.05 µM (inactive) | 2.77 µM (inactive) | 3.18 µM (inactive) | 5.38 µM (inactive) | 4.06 µM (inactive) | 6.89 µM (inactive) | 
2 | O=C1Sc2ccc(Br)cc2C(=O)Sc2ccccc21 | 14.5 µM (inactive) | 9.29 µM (inactive) | 1.06 µM (active) | 12.6 µM (inactive) | 11.8 µM (inactive) | 16 µM (inactive) | 15.8 µM (inactive) | 27.1 µM (inactive) | 14.3 µM (inactive) | 13 µM (inactive) | 16.8 µM (inactive) | 15.7 | 22.4 µM (inactive) | 17.9 µM (inactive) | 18.8 µM (inactive) | 4.84 µM (inactive) | 11.6 µM (inactive) | 11 µM (inactive) | 11.4 µM (inactive) | 8.02 µM (inactive)
3 | CCc1nc(N)nc(N)c1-c1ccc(Cc2ccccc2)c([N+](=O)[O-])c1 | 0.247 µM (active) | 6.95 µM (inactive) | < 0.01 µM (active) | 0.173 µM (active) | 0.0585 µM (active) | 0.0475 µM (active) | < 0.01 µM (active) | < 0.01 µM (active) | < 0.01 µM (active) | < 0.0353 µM (active) | < 0.0111 µM (active) | < 0.01 | 0.0116 µM (active) | < 0.01 µM (active) | 33.9 µM (inactive) | 0.16 µM (active) | 0.0475 µM (active) | < 0.01 µM (active) | 0.0144 µM (active) | 5.53 µM (inactive)
4 | O=C(NCCCCCCNC(=O)n1cc(F)c(=O)[nH]c1=O)NCCCOCCOCCOCCOCCOCCOCCOCCOCCOCCOCCOCCOCCOCCOCCOCCOCCOCCOCCOCCOCCOCCCNC(=O)C(O)C(O)C(O)C(O)CO (stereo not given) | 80 µM (inactive) | > 100 µM (inactive) | 65.9 µM (inactive) | 33.5 µM (inactive) | 25.4 µM (inactive) | 69.8 µM (inactive) | 5.37 µM (inactive) | 6.52 µM (inactive) | 17.5 µM (inactive) | 64.3 µM (inactive) | 28.8 µM (inactive) | 21 | 48.9 µM (inactive) | 53.8 µM (inactive) | > 100 µM (inactive) | > 90.2 µM (inactive) | 1.81 µM (inactive) | 26.6 µM (inactive) | 75.3 µM (inactive) | 85.9 µM (inactive)
5 | CN(C)c1ccc(C2CC(c3ccc4ccccc4c3O)=NN2)cc1 (stereo not given) | 33.2 µM (inactive) | 38.8 µM (inactive) | 14.1 µM (inactive) | 31 µM (inactive) | 50.4 µM (inactive) | 30.3 µM (inactive) | 32.2 µM (inactive) | 31 µM (inactive) | 34.4 µM (inactive) | 32 µM (inactive) | 36.2 µM (inactive) | 44 | 31.6 µM (inactive) | 32.9 µM (inactive) | 35.7 µM (inactive) | 22.2 µM (inactive) | 24.5 µM (inactive) | 21.9 µM (inactive) | 31.8 µM (inactive) | 
6 | CN(C)c1ccc(C(Cc2ccccc2)C2NC(=S)NC2=O)cc1 (stereo not given) | > 100 µM (inactive) | > 100 µM (inactive) | 2.17 µM (inactive) | > 100 µM (inactive) | > 100 µM (inactive) | > 100 µM (inactive) | 99.8 µM (inactive) | > 100 µM (inactive) | > 83.6 µM (inactive) | > 100 µM (inactive) | 67 µM (inactive) | > 100 | > 95.7 µM (inactive) | > 100 µM (inactive) | > 100 µM (inactive) | > 100 µM (inactive) | 47.8 µM (inactive) | > 100 µM (inactive) | > 100 µM (inactive) | > 100 µM (inactive)
7 | O=C1OC(C2=CC(=O)c3ccccc3C2=O)C(Cl)=C1Cl (stereo not given) | 18.3 µM (inactive) | 29.1 µM (inactive) | 24 µM (inactive) | 33.1 µM (inactive) | 39.7 µM (inactive) | 31.5 µM (inactive) | 56.8 µM (inactive) | 89.5 µM (inactive) | 42 µM (inactive) | 27.3 µM (inactive) | 17.4 µM (inactive) | 20 | 86.5 µM (inactive) | 35.2 µM (inactive) | 14.1 µM (inactive) | 15.9 µM (inactive) | 27.4 µM (inactive) | 17.9 µM (inactive) | 39.3 µM (inactive) | 37.8 µM (inactive)
8 | CNc1cc([N+](=O)[O-])ccc1C(=O)N1CCC[C@H]1CO | > 100 µM (inactive) | > 100 µM (inactive) | 44.3 µM (inactive) | > 100 µM (inactive) | > 100 µM (inactive) | > 100 µM (inactive) | > 100 µM (inactive) | > 100 µM (inactive) | > 100 µM (inactive) | > 100 µM (inactive) | > 100 µM (inactive) | > 100 | > 100 µM (inactive) | > 100 µM (inactive) | > 100 µM (inactive) | > 100 µM (inactive) | > 100 µM (inactive) | > 100 µM (inactive) | > 100 µM (inactive) | > 100 µM (inactive)
9 | CC1=NN(c2ccccc2)C(=O)/C1=C\c1c(C)[nH]n(-c2ccccc2)c1=O | > 100 µM (inactive) | 36.1 µM (inactive) | > 100 µM (inactive) | > 100 µM (inactive) | > 100 µM (inactive) | > 100 µM (inactive) | > 100 µM (inactive) | > 100 µM (inactive) | 81.1 µM (inactive) | 77.4 µM (inactive) | > 100 µM (inactive) | > 100 | > 100 µM (inactive) | 92.7 µM (inactive) | > 100 µM (inactive) | 53.7 µM (inactive) | > 100 µM (inactive) | > 100 µM (inactive) | > 100 µM (inactive) | > 100 µM (inactive)
10 | O=C(/C=C/c1ccccc1)CCN1CCOCC1 | 14.8 µM (inactive) | 17.7 µM (inactive) | 2.06 µM (inactive) | 27.3 µM (inactive) | 18.8 µM (inactive) | 21.6 µM (inactive) | 17.8 µM (inactive) | 24.2 µM (inactive) | 13.6 µM (inactive) | 17.4 µM (inactive) | 16 µM (inactive) | 8.57 | 19 µM (inactive) | 5.48 µM (inactive) | 21.1 µM (inactive) | 3.87 µM (inactive) | 12.1 µM (inactive) | 6.85 µM (inactive) | 14.8 µM (inactive) | 18.5 µM (inactive)
11 | CCN(CC)CCCC(C)Nc1ccnc2cc(Cl)ccc12 (stereo not given) [CHLOROQUINE PHOSPHATE] | 34.9 µM (inactive) | 28.1 µM (inactive) | 13.6 µM (inactive) | 34.4 µM (inactive) | 7.94 µM (inactive) | 42.1 µM (inactive) | 18 µM (inactive) | 39.5 µM (inactive) | 17.5 µM (inactive) | 19 µM (inactive) | 28.8 µM (inactive) | 24.9 | 21 µM (inactive) | > 57.4 µM (inactive) | 10 µM (inactive) | 25.8 µM (inactive) | 16.6 µM (inactive) | 11.7 µM (inactive) | 15 µM (inactive) | > 57 µM (inactive)
12 | COc1cc(S(=O)(=O)Nc2nc(-c3ccc(N4C(=O)C(CC(=O)O)SC4c4ccccc4O)cc3)cs2)ccc1Cl (stereo not given) | > 100 µM (inactive) | 28.1 µM (inactive) | 99.8 µM (inactive) | 90.4 µM (inactive) | > 100 µM (inactive) | > 100 µM (inactive) | 82.4 µM (inactive) | 32 µM (inactive) | 90.8 µM (inactive) | 59.4 µM (inactive) | 72.9 µM (inactive) | 47.5 | 51.2 µM (inactive) | > 100 µM (inactive) | > 100 µM (inactive) | 85.3 µM (inactive) | > 100 µM (inactive) | > 100 µM (inactive) | > 100 µM (inactive) | 
13 | CNc1ccc(C(=O)CC(O)CCC(C)C2OC(=O)CC(O)CC(=O)CC(O)CC(O)CC(O)CC(O)CC3(O)CC(O)C(C(=O)NCCN(C)C)C(CC(OC4OC(C)C(O)C(NC(=O)CN5CCN(C)CC5)C4O)\C=C/C=C\C=C/C=C/C=C/C=C\C=C/C2C)O3)cc1 (stereo not given) | 3.21 µM (inactive) | 51.4 µM (inactive) | 2.48 µM (inactive) | 25.6 µM (inactive) | 3.22 µM (inactive) | 6.9 µM (inactive) | 4.73 µM (inactive) | 2.88 µM (inactive) | 3.85 µM (inactive) | > 100 µM (inactive) | 46.2 µM (inactive) | 6.18 | 25.2 µM (inactive) | 3.66 µM (inactive) | 6.22 µM (inactive) | 2.65 µM (inactive) | 37.7 µM (inactive) | 12.9 µM (inactive) | 30.8 µM (inactive) | 
14 | O=C1c2ccccc2-c2c1c1ccccc1c(=O)n2Cc1ccco1 | > 100 µM (inactive) | > 100 µM (inactive) | > 100 µM (inactive) | 47.1 µM (inactive) | > 100 µM (inactive) | > 100 µM (inactive) |  | > 100 µM (inactive) | > 100 µM (inactive) | > 100 µM (inactive) | > 100 µM (inactive) | > 100 | > 100 µM (inactive) | > 100 µM (inactive) | > 100 µM (inactive) | > 100 µM (inactive) | 39.6 µM (inactive) | > 100 µM (inactive) | > 100 µM (inactive) | > 100 µM (inactive)
